Laboratory results: publication PMC3260207, “Site-Directed Mutations and the Polymorphic Variant Ala160Thr in the Human Thromboxane Receptor Uncover a Structural Role for Transmembrane Helix 4” (PLoS ONE, 2012)
Positions count from the first letter of the chain named.

Columns and labels:
[1] = molecular target: T1, TP A160T mutant (nsSNP variant) (Homo sapiens, UniProt P21731, A160T); assay: Heterologous competition binding, unlabeled U46619 against 4 nM [3H] SQ 29,548; conditions: read-out: Ki of agonist U46619, 4 nM [3H] SQ 29,548, 2 hr room temperature, Cheng-Prusoff from IC50
T1 construct: expressed in transfected cells; HEK293T (calcium assays)
T1 sequence (P21731 1-343 A160T): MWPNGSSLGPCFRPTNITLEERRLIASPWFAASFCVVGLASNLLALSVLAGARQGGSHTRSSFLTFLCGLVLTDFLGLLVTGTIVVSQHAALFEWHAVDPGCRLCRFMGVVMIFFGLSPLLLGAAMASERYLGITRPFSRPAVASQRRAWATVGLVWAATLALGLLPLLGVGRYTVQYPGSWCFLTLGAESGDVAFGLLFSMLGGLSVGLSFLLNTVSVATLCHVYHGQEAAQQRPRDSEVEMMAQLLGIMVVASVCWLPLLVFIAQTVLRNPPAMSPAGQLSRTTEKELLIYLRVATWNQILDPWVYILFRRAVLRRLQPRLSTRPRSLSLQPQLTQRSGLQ
Description: (§1) Amino acid substitutions were introduced into the synthetic TPα gene carried by the expression vector pMT4 as described previously, [29]. DNA sequences of all the mutated genes were verified by automated DNA sequencing. To minimize variations in transfection efficiency, the total amount transfected DNA was kept constant in all cases at 1 µg of DNA per 7×10^5 cells. The wild type TP or mutant genes were expressed in COS-1 cells using a DEAE-dextran based transient transfection method, [29], and in HEK293T cells using lipofectamine 2000 (Invitrogen). Except unless specified, the membranes prepared from COS-1 cells were used for radioligand binding assays and immunoblots. For intracellular calcium determination assays and immunofluorescence imaging, HEK293T cells were used. For transient transfections of HEK293T cells using the plasmid pMT4, lipofectamine 2000 (Invitrogen) mediated transfection was used as described by the manufacturer. Membranes were prepared using Buffers A and B and as described previously, [29]. The protein concentration in the resuspended membrane pellet was determined using a modified DC protein assay kit from Bio-Rad Laboratories (Hercules, CA).
(§2) These were carried out in Buffer C for 60 min at room temperature, using 2 to 20 µg of membrane protein and different concentrations of [^3H] […] Binding of [^3H] […] Competition binding assays were performed using 4 nM [^3H] […] Binding was terminated by filtering under vacuum on GF/A filters (Millipore). Filter-bound radioactivity was measured using a liquid scintillation counter. Equilibrium dissociation constants (Kd) were determined from saturation isotherms using PRISM software version 5.0 (GraphPad Software Inc, San Diego, CA, USA). The Ki values were calculated from the IC50, using the equation of Cheng and Prusoff by PRISM software version 5.0. Where applicable, statistical significance of the data was evaluated using analysis of variance (ANOVA) and/or unpaired t test.

[2] = molecular target: T2, TP A160V mutant (Homo sapiens, UniProt P21731, A160V); assay: as above; conditions: read-out: Ki of agonist U46619, 4 nM [3H] SQ 29,548, 2 hr room temperature, Cheng-Prusoff from IC50
T2 construct: expressed in transfected cells; HEK293T (calcium assays)
T2 sequence (P21731 1-343 A160V): T1 sequence (P21731 1-343 A160T) with T160V
Description: as §1, §2

CCCCC[C@H](O)/C=C/[C@@H]1[C@@H](C/C=C\CCCC(=O)O)[C@H]2CO[C@@H]1C2 [U46619]
Ki [1]: 720 nM
Ki [2]: 1510 nM
